PubChem BioAssay AID1963832 (Molecular Pharmacology Branch, DTP, NCI, 2024)

Test system: 885724-159-R-J1-PDC complex spheroid viability
Assay: Anticancer human tumor 885724-159-R-J1-PDC patient-derived pancreatic adenocarcinoma cell line growth inhibition [POLQ]
Settings: for IC50: curve of first compound; for viability, T/C: stronger effect = lower value
In short: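 PDC + HUVEC + MSC complex spheroids; POLQ inhibitors ± partner drugs; top conc. at/near clinical Cmax, else 10 microM (SN-38 1 microM), half-log dilutions; 37 degrees C, 5% CO2.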
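Note: spheroids exposed to compounds for 7 days.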

CC(=O)O[C@H]1C(=O)[C@@]2(C)[C@H]([C@H](OC(=O)c3ccccc3)[C@]3(O)C[C@H](OC(=O)[C@H](O)[C@@H](NC(=O)c4ccccc4)c4ccccc4)C(C)=C1C3(C)C)[C@]1(OC(C)=O)CO[C@@H]1C[C@@H]2O + Cc1cccc(N(C)C(=O)C2C(O)CCN2c2nc(C)cc(C(F)(F)F)c2C#N)c1
IC50 (second compound 0.0316 µM): > 3 µM | IC50 (second compound 0.1 µM): > 3 µM | IC50 (second compound 0.316 µM): > 3 µM | IC50 (second compound 1 µM): > 3 µM | IC50 (second compound 3.16 µM): > 3 µM | IC50 (second compound 10 µM): > 3 µM | viability, T/C (second compound 0.0316 µM, first compound 0.00949 µM): 76.7% | viability, T/C (second compound 0.0316 µM, first compound 0.03 µM): 57.6% | viability, T/C (second compound 0.0316 µM, first compound 0.0949 µM): 58.8% | viability, T/C (second compound 0.0316 µM, first compound 0.3 µM): 62.2% | viability, T/C (second compound 0.0316 µM, first compound 0.949 µM): 70.6% | viability, T/C (second compound 0.0316 µM, first compound 3 µM): 61% | viability, T/C (second compound 0.1 µM, first compound 0.00949 µM): 75.1% | viability, T/C (second compound 0.1 µM, first compound 0.03 µM): 59.4% | viability, T/C (second compound 0.1 µM, first compound 0.0949 µM): 59.8% | viability, T/C (second compound 0.1 µM, first compound 0.3 µM): 70.4% | viability, T/C (second compound 0.1 µM, first compound 0.949 µM): 67.3% | viability, T/C (second compound 0.1 µM, first compound 3 µM): 70.6% | viability, T/C (second compound 0.316 µM, first compound 0.00949 µM): 67.6% | viability, T/C (second compound 0.316 µM, first compound 0.03 µM): 59.6% | viability, T/C (second compound 0.316 µM, first compound 0.0949 µM): 63% | viability, T/C (second compound 0.316 µM, first compound 0.3 µM): 63.6% | viability, T/C (second compound 0.316 µM, first compound 0.949 µM): 75.4% | viability, T/C (second compound 0.316 µM, first compound 3 µM): 69.7% | viability, T/C (second compound 1 µM, first compound 0.00949 µM): 68.2% | viability, T/C (second compound 1 µM, first compound 0.03 µM): 66.3% | viability, T/C (second compound 1 µM, first compound 0.0949 µM): 62.8% | viability, T/C (second compound 1 µM, first compound 0.3 µM): 67.2% | viability, T/C (second compound 1 µM, first compound 0.949 µM): 69.1% | viability, T/C (second compound 1 µM, first compound 3 µM): 68.9% | viability, T/C (second compound 3.16 µM, first compound 0.00949 µM): 62.5% | viability, T/C (second compound 3.16 µM, first compound 0.03 µM): 55.1% | viability, T/C (second compound 3.16 µM, first compound 0.0949 µM): 59.4% | viability, T/C (second compound 3.16 µM, first compound 0.3 µM): 63.8% | viability, T/C (second compound 3.16 µM, first compound 0.949 µM): 67.6% | viability, T/C (second compound 3.16 µM, first compound 3 µM): 64.5% | viability, T/C (second compound 10 µM, first compound 0.00949 µM): 59.1% | viability, T/C (second compound 10 µM, first compound 0.03 µM): 61.1% | viability, T/C (second compound 10 µM, first compound 0.0949 µM): 61% | viability, T/C (second compound 10 µM, first compound 0.3 µM): 66% | viability, T/C (second compound 10 µM, first compound 0.949 µM): 62.7% | viability, T/C (second compound 10 µM, first compound 3 µM): 72%

COc1cc(C2c3cc4c(cc3C(OC3OC5COC(C)OC5C(O)C3O)C3COC(=O)C23)OCO4)cc(OC)c1O (centres undefined) + Cc1cccc(N(C)C(=O)C2C(O)CCN2c2nc(C)cc(C(F)(F)F)c2C#N)c1
IC50 (second compound 0.0316 µM): 8.12 µM | IC50 (second compound 0.1 µM): 9.11 µM | IC50 (second compound 0.316 µM): 9.09 µM | IC50 (second compound 1 µM): 6.86 µM | IC50 (second compound 3.16 µM): 6.86 µM | IC50 (second compound 10 µM): 6.05 µM | viability, T/C (second compound 0.0316 µM, first compound 0.0316 µM): 101% | viability, T/C (second compound 0.0316 µM, first compound 0.1 µM): 90.2% | viability, T/C (second compound 0.0316 µM, first compound 0.316 µM): 80.7% | viability, T/C (second compound 0.0316 µM, first compound 1 µM): 75% | viability, T/C (second compound 0.0316 µM, first compound 3.16 µM): 57.7% | viability, T/C (second compound 0.0316 µM, first compound 10 µM): 48.1% | viability, T/C (second compound 0.1 µM, first compound 0.0316 µM): 94.7% | viability, T/C (second compound 0.1 µM, first compound 0.1 µM): 86.1% | viability, T/C (second compound 0.1 µM, first compound 0.316 µM): 79.5% | viability, T/C (second compound 0.1 µM, first compound 1 µM): 73.4% | viability, T/C (second compound 0.1 µM, first compound 3.16 µM): 63.2% | viability, T/C (second compound 0.1 µM, first compound 10 µM): 47.5% | viability, T/C (second compound 0.316 µM, first compound 0.0316 µM): 95.4% | viability, T/C (second compound 0.316 µM, first compound 0.1 µM): 99.8% | viability, T/C (second compound 0.316 µM, first compound 0.316 µM): 74.6% | viability, T/C (second compound 0.316 µM, first compound 1 µM): 71% | viability, T/C (second compound 0.316 µM, first compound 3.16 µM): 58.2% | viability, T/C (second compound 0.316 µM, first compound 10 µM): 48.4% | viability, T/C (second compound 1 µM, first compound 0.0316 µM): 100% | viability, T/C (second compound 1 µM, first compound 0.1 µM): 79.3% | viability, T/C (second compound 1 µM, first compound 0.316 µM): 74% | viability, T/C (second compound 1 µM, first compound 1 µM): 71% | viability, T/C (second compound 1 µM, first compound 3.16 µM): 55.7% | viability, T/C (second compound 1 µM, first compound 10 µM): 45.4% | viability, T/C (second compound 3.16 µM, first compound 0.0316 µM): 98.1% | viability, T/C (second compound 3.16 µM, first compound 0.1 µM): 96.9% | viability, T/C (second compound 3.16 µM, first compound 0.316 µM): 76.2% | viability, T/C (second compound 3.16 µM, first compound 1 µM): 67.3% | viability, T/C (second compound 3.16 µM, first compound 3.16 µM): 58.6% | viability, T/C (second compound 3.16 µM, first compound 10 µM): 45.9% | viability, T/C (second compound 10 µM, first compound 0.0316 µM): 95.9% | viability, T/C (second compound 10 µM, first compound 0.1 µM): 80% | viability, T/C (second compound 10 µM, first compound 0.316 µM): 74.9% | viability, T/C (second compound 10 µM, first compound 1 µM): 62.6% | viability, T/C (second compound 10 µM, first compound 3.16 µM): 58.2% | viability, T/C (second compound 10 µM, first compound 10 µM): 44.2%
